We go through 27 compounds from patent US9586928B2 (The Scripps Research Institute, priority 2011, dated 2017).

The structures appear in SMILES notation.

One assay concerns the target T1, GST-RORγ (Homo sapiens, UniProt P51449).
T1 construct: 1 μg of GST-RORγ-LBD, 5 nM of [3H]T1317 as radioligand
T1 sequence (P51449 269-508 limits assumed): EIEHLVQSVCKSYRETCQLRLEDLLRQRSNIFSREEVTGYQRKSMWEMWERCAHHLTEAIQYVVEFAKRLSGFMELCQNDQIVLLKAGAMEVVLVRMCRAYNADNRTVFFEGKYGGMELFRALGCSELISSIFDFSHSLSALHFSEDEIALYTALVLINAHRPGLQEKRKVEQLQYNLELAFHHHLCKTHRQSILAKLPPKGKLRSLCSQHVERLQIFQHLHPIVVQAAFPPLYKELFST
Put plainly: RORγ scintillation proximity (SPA) radioligand binding assay, displacement of [3H]-T0901317. The note with it: read-out: RORγ SPA % bound = % radiolabel bound; for remaining activity at 1 µM: 1 μM compound (Table 2D); for remaining activity at 10 µM: 10 μM compound. For orientation: SPA uses beads or plates that emit light when radiolabelled molecules are held near them.

The test system of a further assay is VP16. Description: Gal4 DBD-VP16 / UAS luciferase control assay. The class given is cell-based. The note with it: 10 μM.
In the next assay the target is T2, RORγ (Homo sapiens, UniProt P51449).
T2 construct: expressed in transfected cells; host or cells: HEK293T
T2 sequence (P51449 269-508 limits assumed): T1 sequence (P51449 269-508 limits assumed)
Description: Gal4-RORγ LBD / UAS luciferase cotransfection assay. In kind it is cell-based. As to conditions: 10 μM.

Description for VP16: The cells were treated with either DMSO or various compounds as indicated four hours after replating. Following additional 20 hour incubation, luciferase levels were assayed by one-step addition of 20 μL BriteLite (Perkin Elmer) and read using an Envision multilabel plate reader (Perkin Elmer).

On to `OC(c1ccc(-c2ccc(CC3CCN(Cc4ccncc4)CC3)cc2)cc1)(C(F)(F)F)C(F)(F)F` [Example 164, 1,1,1,3,3,3-hexafluoro-2-(4′-((1-(pyridin-4-ylmethyl)piperidin-4-yl)methyl)-[1,1′-biphenyl]-4-yl)propan-2-ol], for which the remaining activity at 1 µM at GST-RORγ is 10%. On to `OC(c1ccc(-c2ccc(CN3CCN(Cc4ccncc4)CC3)cc2)cc1F)(C(F)(F)F)C(F)(F)F` [Compound 105, 1,1,1,3,3,3-Hexafluoro-2-(3-fluoro-4′-((4-(pyridin-4-ylmethyl)piperazin-1-yl)methyl)-[1,1′-biphenyl]-4-yl)propan-2-ol], for which the remaining activity at 10 µM on GST-RORγ was found to be 80%. With `O=C1CN(Cc2ccncc2)CCN1Cc1ccc(-c2ccc(C(O)(C(F)(F)F)C(F)(F)F)cc2)cc1` [Compound 120], at GST-RORγ, the remaining activity at 10 µM worked out at 15%. On to `CC(C)Oc1cc(C(O)(C(F)(F)F)C(F)(F)F)ccc1-c1ccc(CN2CCN(Cc3ccncc3)CC2)cc1` [Example 156, 1,1,1,3,3,3-hexafluoro-2-(2-isopropoxy-4′-((4-(pyridin-4-ylmethyl)piperazin-1-yl)methyl)-[1,1′-biphenyl]-4-yl)propan-2-ol], for which the remaining activity at 1 µM at GST-RORγ was 75%. Take `O=S(=O)(c1ccc(C(F)(F)F)cc1)N1CCN(Cc2ccc(-c3ccc(C(O)(C(F)(F)F)C(F)(F)F)cc3)cc2)CC1` [Example 146, 1,1,1,3,3,3-Hexafluoro-2-(4′-((4-((4-(trifluoromethyl)phenyl)sulfonyl)piperazin-1-yl)methyl)-[1,1′-biphenyl]-4-yl)propan-2-ol]: the “VP16 repression, fold change over DMSO” value in the assay with VP16 stood at 0.7 fold change over DMSO. Moreover, the “RORγ repression, fold change over DMSO” value at RORγ was 0.9 fold change over DMSO. As for `CCCCC(c1ccc(-c2ccc(C(O)(C(F)(F)F)C(F)(F)F)cc2)cc1)N1CCN(Cc2ccncc2)CC1` (stereo not shown) [Example 142, 1,1,1,3,3,3-hexafluoro-2-(4′-(1-(4-(pyridin-4-ylmethyl)piperazin-1-yl)pentyl)-[1,1′-biphenyl]-4-yl)propan-2-ol], at GST-RORγ, the remaining activity at 1 µM is 73%. On to `CC(c1ccc(-c2ccc(C(O)(C(F)(F)F)C(F)(F)F)cc2)cc1)N1CCN(Cc2ccncc2)CC1` (stereo not shown) [Compound 140, 1,1,1,3,3,3-hexafluoro-2-(4′-(1-(4-(pyridin-4-ylmethyl)piperazin-1-yl)ethyl)-[1,1′-biphenyl]-4-yl)propan-2-ol], for which the remaining activity at 1 µM at GST-RORγ stood at 74%. `Cc1cc(-c2ccc(CN3CCN(Cc4ccncc4)CC3)cc2)ccc1C(O)(C(F)(F)F)C(F)(F)F` [Compound 107, 1,1,1,3,3,3-Hexafluoro-2-(3-methyl-4′-((4-(pyridin-4-ylmethyl)piperazin-1-yl)methyl)-[1,1′-biphenyl]-4-yl)propan-2-ol]: on GST-RORγ, the remaining activity at 10 µM turned out to be 100%. In the case of `Cc1ccc([N+](=O)[O-])cc1S(=O)(=O)N1CCN(Cc2ccc(-c3ccc(C(O)(C(F)(F)F)C(F)(F)F)cc3)cc2)CC1` [Example 148, 1,1,1,3,33-Hexafluoro-2-(4′-((4-((2-methyl-5-nitrophenyl)sulfonyl)piperazin-1-yl)methyl)-[1,1′-biphenyl]-4-yl)propan-2-ol], in the assay with VP16, the “VP16 repression, fold change over DMSO” value came out at 1.0 fold change over DMSO. The “RORγ repression, fold change over DMSO” value on RORγ is listed as 0.4 fold change over DMSO.

`OC(c1ccc(-c2ccc(CN3CCN(Cc4ccc5nc[nH]c5c4)CC3)cc2)cc1)(C(F)(F)F)C(F)(F)F` [Example 155, 2-(4′-((4-((1H-benzo[d]imidazol-6-yl)methyl)piperazin-1-yl)methyl)-[1,1′-biphenyl]-4-yl)-1,1,1,3,3,3-hexafluoropropan-2-ol]: the remaining activity at 1 µM at GST-RORγ came out at 100%. Take `OC(c1ccc(-c2ccc(CCN3CCN(Cc4ccncc4)CC3)cc2)cc1)(C(F)(F)F)C(F)(F)F` [Example 144, 1,1,1,3,3,3-hexafluoro-2-(4′-(2-(4-(pyridin-4-ylmethyl)piperazin-1-yl)ethyl)-[1,1′-biphenyl]-4-yl)propan-2-ol]: the remaining activity at 1 µM at GST-RORγ is 61%.

For `OC(c1ccc(-c2ccc3c(c2)CCC3N2CCN(Cc3ccncc3)CC2)cc1)(C(F)(F)F)C(F)(F)F` (stereo not shown) [Compound 139, 1,1,1,3,3,3-hexafluoro-2-(4-(1-(4-(pyridin-4-ylmethyl)piperazin-1-yl)-2,3-dihydro-H I-inden-5-yl)phenyl)propan-2-ol], the remaining activity at 1 µM on GST-RORγ came to 59%. For the compound `O=C(Cc1c[nH]cn1)N1CCN(Cc2ccc(-c3ccc(C(O)(C(F)(F)F)C(F)(F)F)cc3)cc2)CC1` [Example 159, 1-(4-((4′-(1,1,1,3,3,3-hexafluoro-2-hydroxypropan-2-yl)-[1,1′-biphenyl]-4-yl)methyl)piperazin-1-yl)-2-(1H-imidazol-4-yl)ethanone], the remaining activity at 1 µM on GST-RORγ worked out at 80%. Regarding `O=S(=O)(c1ccc(CBr)cc1)N1CCN(Cc2ccc(-c3ccc(C(O)(C(F)(F)F)C(F)(F)F)cc3)cc2)CC1` [Example 147, 2-(4′-((4-((4-(Bromomethyl)phenyl)sulfonyl)piperazin-1-yl)methyl)-[1,1′-biphenyl]-4-yl)-1,1,1,3,3,3-hexafluoropropan-2-ol], the “VP16 repression, fold change over DMSO” value in the assay on VP16 was determined as 0.5 fold change over DMSO. For the same compound, on RORγ, the “RORγ repression, fold change over DMSO” value turned out to be 0.5 fold change over DMSO. In the case of `OC(c1ccc(-c2ccc(CN3CCN(Cc4c[nH]cn4)CC3)cc2)cc1)(C(F)(F)F)C(F)(F)F` [Compound 112, 2-(4′-((4-((1H-Imidazol-5-yl)methyl)piperazin-1-yl)methyl)-[1,1′-biphenyl]-4-yl)-1,1,1,3,3,3-hexafluoropropan-2-ol], the remaining activity at 10 µM on GST-RORγ amounted to 48%. As to `O=S(=O)(c1cccs1)N1CCN(Cc2ccc(-c3ccc(C(O)(C(F)(F)F)C(F)(F)F)cc3)cc2)CC1` [Example 145, 1,1,1,3,3,3-Hexafluoro-2-(4′-((4-(thiophen-2-ylsulfonyl)piperazin-1-yl)methyl)-[1,1′-biphenyl]-4-yl)propan-2-ol], the “VP16 repression, fold change over DMSO” value with VP16 was found to be 3.0 fold change over DMSO. For the same compound, on RORγ, the “RORγ repression, fold change over DMSO” value is listed as 3.0 fold change over DMSO. For the compound `OC(c1ccc(-c2ccc(CN3CCN(Cc4ccc5cc[nH]c5c4)CC3)cc2)cc1)(C(F)(F)F)C(F)(F)F` [Example 154, 2-(4′-((4-((1H-indol-6-yl)methyl)piperazin-1-yl)methyl)-[1,1′-biphenyl]-4-yl)-1,1,1,3,3,3-hexafluoropropan-2-ol], the remaining activity at 1 µM at GST-RORγ was 90%. Consider `OC(c1ccc(-c2cccc(CC3CCCN(Cc4ccncc4)C3)c2)cc1)(C(F)(F)F)C(F)(F)F` (stereo not shown) [Example 163, 1,1,1,3,3,3-hexafluoro-2-(3′-((1-(pyridin-4-ylmethyl)piperidin-3-yl)methyl)-[1,1′-biphenyl]-4-yl)propan-2-ol], for which the remaining activity at 1 µM on GST-RORγ turned out to be 10%. Turning to `COc1cc(-c2ccc(CN3CCN(Cc4ccncc4)CC3)cc2)ccc1C(O)(C(F)(F)F)C(F)(F)F` [Compound 106, 1,1,1,3,3,3-Hexafluoro-2-(3-methoxy-4′-((4-(pyridin-4-ylmethyl)piperazin-1-yl)methyl)-[1,1′-biphenyl]-4-yl)propan-2-ol], the remaining activity at 10 µM on GST-RORγ came out at 40%. As for `O=C1CN(Cc2ccc(-c3ccc(C(O)(C(F)(F)F)C(F)(F)F)cc3)cc2)CCN1Cc1ccncc1` [Compound 119], the remaining activity at 10 µM on GST-RORγ is 15%. `CC(C)CCN1CCN(Cc2ccc(-c3ccc(C(O)(C(F)(F)F)C(F)(F)F)cc3)cc2)CC1` [Example 157, 1,1,1,3,3,3-hexafluoro-2-(4′-((4-isopentylpiperazin-1-yl)methyl)-[1,1′-biphenyl]-4-yl)propan-2-ol]: the remaining activity at 1 µM on GST-RORγ worked out at 20%. In the case of `O=C(Oc1ccc([N+](=O)[O-])cc1)N1CCN(Cc2ccc(-c3ccc(C(O)(C(F)(F)F)C(F)(F)F)cc3)cc2)CC1` [Example 151, 4-Nitrophenyl 4-((4′-(1,1,1,3,3,3-hexafluoro-2-hydroxypropan-2-yl)-[1,1′-biphenyl]-4-yl)methyl)piperazine-1-carboxylate], the “VP16 repression, fold change over DMSO” value in the assay with VP16 stood at 0.6 fold change over DMSO. Further, at RORγ, the “RORγ repression, fold change over DMSO” value stood at 0.6 fold change over DMSO. Regarding `OC(c1ccc(-c2ccc3c(c2)CCN3C2CCN(Cc3ccncc3)CC2)cc1)(C(F)(F)F)C(F)(F)F` [Example 162, 1,1,1,3,3,3-hexafluoro-2-(4-(1-(1-(pyridin-4-ylmethyl)piperidin-4-yl)indolin-5-yl)phenyl)propan-2-ol], the remaining activity at 1 µM on GST-RORγ was determined as 15%. With `CCCCC(=O)N1CCN(Cc2ccc(-c3ccc(C(O)(C(F)(F)F)C(F)(F)F)cc3)cc2)CC1` [Example 158, 1-(4-((4′-(1,1,1,3,3,3-hexafluoro-2-hydroxypropan-2-yl)-[1,1′-biphenyl]-4-yl)methyl)piperazin-1-yl)pentan-1-one], the remaining activity at 1 µM at GST-RORγ was 10%. Turning to `CC1CN(Cc2ccc(-c3ccc(C(O)(C(F)(F)F)C(F)(F)F)cc3)cc2)CCN1Cc1ccncc1` (stereo not shown) [Compound 117], the remaining activity at 10 µM on GST-RORγ is 20%. `O=[N+]([O-])c1ccc(S(=O)(=O)N2CCN(Cc3ccc(-c4ccc(C(O)(C(F)(F)F)C(F)(F)F)cc4)cc3)CC2)cc1` [Example 149, 1,1,1,3,3,3-Hexafluoro-2-(4′-((4-((4-nitrophenyl)sulfonyl)piperazin-1-yl)methyl)-[1,1′-biphenyl]-4-yl)propan-2-ol]: the “VP16 repression, fold change over DMSO” value in the assay with VP16 was 0.7 fold change over DMSO. The “RORγ repression, fold change over DMSO” value at RORγ was found to be 0.5 fold change over DMSO. Consider `O=C(OCc1ccccc1)N1CCN(Cc2ccc(-c3ccc(C(O)(C(F)(F)F)C(F)(F)F)cc3)cc2)CC1` [Example 150, Benzyl 4-((4′-(1,1,1,3,3,3-hexafluoro-2-hydroxypropan-2-yl)-[1,1′-biphenyl]-4-yl)methyl)piperazine-1-carboxylate], for which the “VP16 repression, fold change over DMSO” value with VP16 came to 0.9 fold change over DMSO. Further, the “RORγ repression, fold change over DMSO” value on RORγ is listed as 0.5 fold change over DMSO.
